Test results published in patent publication US7713994B2 (Wyeth LLC, priority 2005, dated 2010).
Where two headings read alike, the source gives them in different places.

How the values were obtained:
cyclin D1/cdk 4 enzyme = target: T1, cyclin D1/cdk 4 enzyme (Homo sapiens, UniProt P11802); experiment: CDK4 ELISA kinase assay (phospho-Rb ser 795 detection); type: biochemical
T1 construct: made in house; host or cells: Sf9 insect cells, recombinant baculovirus
Outline: (§1)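 Inhibition was derived from A450 relative to control wells lacking compound, following an anti-phospho-Rb Ser795 sandwich of HRP detection. The reactions combined coated GST-Rb fragment, 200 μM ATP and baculovirus-expressed cyclin/CDK enzymes, incubated for 1 h at 30° C.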

cyclin E/CDK2 enzyme = target: T2, cyclin E/CDK2 enzyme (Homo sapiens, UniProt P24941); experiment: CDK2 ELISA kinase assay (phospho-Rb ser 795 detection); type: biochemical
T2 construct: made in house; host or cells: Sf9 insect cells, recombinant baculovirus
Outline: as §1

LoVo = experiment: Cytotoxicity assay (SRB), LoVo; type: cell-based; details: Homo sapiens, LoVo, 72 h, LoVo cells, SRB, read-out: In Vitro Cellular Activity IC50 LOVO
Outline: (§2)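 Cells were seeded overnight in RPMI 1640 with 5% FBS at 37 °C, 7% CO2 (12000/well BT474, 4000 HCT-116, 6000 LoVo, 6000 MCF-7), then exposed to compound dilutions for 3 days (6 days for BT474). Survival versus untreated controls was measured by TCA fixation and SRB staining at 540 nm.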

cyclin B/CDK1 enzyme = target: T3, cyclin B/CDK1 enzyme (Homo sapiens, UniProt P06493); experiment: CDK1 ELISA kinase assay (phospho-Rb ser 795 detection); type: biochemical
T3 construct: purchased New England BioLabs; host or cells: Sf9 insect cells, recombinant baculovirus
T3 sequence (P06493 whole entry): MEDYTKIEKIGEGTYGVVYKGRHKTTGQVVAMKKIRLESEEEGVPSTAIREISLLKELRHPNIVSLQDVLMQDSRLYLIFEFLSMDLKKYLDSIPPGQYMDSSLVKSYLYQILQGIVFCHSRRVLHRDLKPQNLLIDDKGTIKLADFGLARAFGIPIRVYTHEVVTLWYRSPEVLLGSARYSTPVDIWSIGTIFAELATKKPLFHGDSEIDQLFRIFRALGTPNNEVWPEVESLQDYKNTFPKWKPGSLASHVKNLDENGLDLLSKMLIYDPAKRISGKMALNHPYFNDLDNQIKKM
T3 sequence (P14635 whole entry partner): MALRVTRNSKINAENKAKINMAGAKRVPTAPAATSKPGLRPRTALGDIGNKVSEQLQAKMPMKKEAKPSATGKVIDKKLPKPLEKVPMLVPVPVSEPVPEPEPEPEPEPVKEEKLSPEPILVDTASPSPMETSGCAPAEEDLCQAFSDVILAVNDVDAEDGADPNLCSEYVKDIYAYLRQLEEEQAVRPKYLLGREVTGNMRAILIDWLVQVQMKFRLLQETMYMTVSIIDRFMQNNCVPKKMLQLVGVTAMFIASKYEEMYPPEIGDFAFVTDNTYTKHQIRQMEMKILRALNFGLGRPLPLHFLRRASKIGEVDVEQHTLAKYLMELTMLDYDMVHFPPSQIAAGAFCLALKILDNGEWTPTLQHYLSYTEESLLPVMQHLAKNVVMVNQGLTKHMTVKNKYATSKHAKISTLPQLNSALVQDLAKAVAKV
Outline: as §1

HCT-116 = experiment: Cytotoxicity assay (SRB), HCT-116; type: cell-based; details: Homo sapiens, HCT-116, 72 h, HCT116 cells, SRB, read-out: In Vitro Cellular Activity IC50 HCT116
Outline: as §2

MCF-7 = experiment: Cytotoxicity assay (SRB), MCF-7; type: cell-based; details: Homo sapiens, MCF7, 72 h, MCF-7 cells, SRB, read-out: In Vitro Cellular Activity IC50 MCF-7
Outline: as §2

BT474 = experiment: Cytotoxicity assay (SRB), BT474; type: cell-based
Outline: as §2

[1] = In Vitro Enzyme Assay, cyclin D1/cdk 4, read-out: CDK4 IC50
[2] = In Vitro Enzyme Assay, cyclin E/CDK2, read-out: CDK2 IC50
[3] = In Vitro Enzyme Assay, cyclin B/CDK1, read-out: CDK1 IC50
[4] = Homo sapiens, BT-474, 144 h, BT474 cells, 6 days, SRB; read-out: In Vitro Cellular Activity IC50 BT474
[5] = In Vitro Enzyme Assays, 200 μM ATP, read-out: CDK4 IC50
[6] = In Vitro Enzyme Assays, read-out: CDK2 IC50
[7] = In Vitro Enzyme Assays, read-out: CDK1 IC50
[8] = Homo sapiens, BT-474, 144 h, BT474 cells, SRB, 6 days; read-out: In Vitro Cellular Activity IC50 BT474

T1 sequence (P11802 whole entry, species assumed): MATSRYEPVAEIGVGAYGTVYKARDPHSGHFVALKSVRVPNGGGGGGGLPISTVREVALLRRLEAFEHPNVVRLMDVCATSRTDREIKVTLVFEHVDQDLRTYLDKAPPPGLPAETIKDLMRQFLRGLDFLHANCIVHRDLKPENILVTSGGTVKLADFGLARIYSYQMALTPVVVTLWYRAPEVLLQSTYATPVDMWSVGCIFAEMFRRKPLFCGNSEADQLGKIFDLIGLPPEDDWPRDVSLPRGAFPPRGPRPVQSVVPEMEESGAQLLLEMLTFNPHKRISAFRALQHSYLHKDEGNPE
T1 sequence (P24385 whole entry partner, species assumed): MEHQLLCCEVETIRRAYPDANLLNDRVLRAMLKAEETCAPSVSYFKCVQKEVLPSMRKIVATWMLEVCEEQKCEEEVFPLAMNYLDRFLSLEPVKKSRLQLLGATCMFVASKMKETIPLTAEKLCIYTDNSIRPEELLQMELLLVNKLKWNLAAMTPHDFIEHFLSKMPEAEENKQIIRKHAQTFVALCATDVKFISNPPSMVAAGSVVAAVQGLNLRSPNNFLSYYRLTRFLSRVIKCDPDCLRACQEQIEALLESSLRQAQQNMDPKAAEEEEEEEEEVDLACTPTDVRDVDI

Row | IC50 (cyclin D1/cdk 4 enzyme; [1]) [µM] | IC50 (cyclin E/CDK2 enzyme; [2]) [µM] | IC50 (cyclin B/CDK1 enzyme; [3]) [µM] | IC50 (cyclin D1/cdk 4 enzyme; [5]) [µM] | IC50 (cyclin E/CDK2 enzyme; [6]) [µM] | IC50 (cyclin B/CDK1 enzyme; [7]) [µM] | SMILES | IC50 (LoVo; 3 days) [µM] | IC50 (HCT-116; 3 days) [µM] | IC50 (MCF-7; 3 days) [µM] | IC50 (BT474; [4]) [µM] | IC50 (cyclin D1/cdk 4 enzyme; CDK4 IC50, In Vitro Enzyme Assays, 200 μM ATP) [µM] | IC50 (LoVo; three days) [µM] | IC50 (cyclin B/CDK1 enzyme; CDK1 IC50, In Vitro Enzyme Assays) [µM] | IC50 (HCT-116; three days) [µM] | IC50 (MCF-7; three days) [µM] | IC50 (BT474; [8]) [µM]
1 | 1.18 | 16.5 | > 50 |  |  |  | O=C1NC(=O)c2ccc(-c3cccc(C(F)(F)F)c3)cc2C1=CNCc1ccc(O)c(O)c1 [Example 773, 4-[(3,4-Dihydroxy-benzylamino)-methylene]-6-(3-trifluoromethyl-phenyl)-4H-isoquinoline-1,3-dione] | 14.4 | 13.7 | 12.6 | 20.9 |  |  |  |  |  | 
2 |  |  |  | > 50 | > 50 | 40.6 | O=C1NC(=O)c2ccc(I)cc2/C1=C/Nc1ccc(N2CCC(CO)CC2)cc1 [Example 434, (4Z)-4-[({4-[4-(Hydroxymethyl)piperidin-1-yl]phenyl}amino)methylene]-6-iodoisoquinoline-1,3(2H,4H)-dione] | 8.2 | 4.5 | 31.5 | 8.1 |  |  |  |  |  | 
3 |  |  |  | 0.01 | 9.2 | > 50 | COc1ccc(CN/C=C2\C(=O)NC(=O)c3ccc(-c4cccc(F)c4)cc32)cc1O [Example 209, (4Z)-6-(3-Fluorophenyl)-4-{[(3-hydroxy-4-methoxybenzyl)amino]methylene}iso-quinoline-1,3(2H,4H)-dione] |  |  |  |  |  | 15 |  | 7 | 5.4 | 9.4
4 | 0.04 | 2.9 | 13.5 |  |  |  | O=C1NC(=O)c2ccc(-c3ccc4[nH]ccc4c3)cc2C1=CNCc1ccc(O)c(O)c1 [Example 646, 4-[(3,4-Dihydroxy-benzylamino)-methylene]-6-(1H-indol-5-yl)-4H-isoquinoline-1,3-dione] | 10.7 | 8.4 | 7.7 | 11.9 |  |  |  |  |  | 
5 |  |  |  | 2.1 | > 50 | > 50 | O=C1CC[C@@H](CN/C=C2\C(=O)NC(=O)c3ccc(I)cc32)N1 (stereo in doubt) [Example 427, 6-Iodo-4-{[(5-oxo-pyrrolidin-2-ylmethyl)-amino]-methylene}-4H-isoquinoline-1,3-dione] | 22.7 | 17.8 | 22.4 | 23.2 |  |  |  |  |  | 
6 |  |  |  | 0.47 | > 50 | 23.1 | O=C1NC(=O)c2ccc(I)cc2/C1=C/Nc1ccc(N2CCN(CCO)CC2)cc1 [Example 401, (4Z)-4-[({4-[4-(2-Hydroxyethyl)piperazin-1-yl]phenyl}amino)methylene]-6-iodoisoquinoline-1,3(2H,4H)-dione] | 6.7 | 2.6 | 5.1 | 4.45 |  |  |  |  |  | 
7 |  |  |  | 0.03 | > 50 | > 50 | CC(C)N1CCN(c2ccc(N/C=C3\C(=O)NC(=O)c4ccc(-c5ccsc5)cc43)cn2)CC1 [Example 417, (4Z)-4-({[6-(4-Isopropylpiperazin-1-yl)pyridin-3-yl]amino}methylene)-6-(3-thienyl)isoquinoline-1,3(2H,4H)-dione] | 3.1 | 1.3 | 3.2 | 2.8 |  |  |  |  |  | 
8 |  |  |  | 15.8 | > 50 | > 50 | CCCOc1ccc(CN/C=C2\C(=O)NC(=O)c3ccc(-c4ccc(F)c(F)c4)cc32)cc1O [Example 194, (4Z)-6-(3,4-Difluorophenyl)-4-{[(3-hydroxy-4-propoxybenzyl)amino]methylene}-isoquinoline-1,3(2H,4H)-dione] |  |  |  |  |  | > 50 |  | > 50 | 9.1 | > 50
9 | 1.81 | 3.7 | 13.5 |  |  |  | NS(=O)(=O)c1ccc(CNC=C2C(=O)NC(=O)c3ccc(-c4ccccc4F)cc32)cc1 [Example 740, 4-({[6-(2-Fluoro-phenyl)-1,3-dioxo-2,3-dihydro-1H-isoquinolin-4-ylidenemethyl]-amino}-methyl)-benzenesulfonamide] | 10 | 7.7 | 8.3 | 9.7 |  |  |  |  |  | 
10 | 0.47 | 22.6 | > 50 |  |  |  | CSc1ccc(-c2ccc3c(c2)C(=CNCc2ccc(O)c(O)c2)C(=O)NC3=O)cc1 [Example 792, 4-[(3,4-Dihydroxy-benzylamino)-methylene]-6-(4-methylsulfanyl-phenyl)-4H-isoquinoline-1,3-dione] | 15.6 | 14.7 | 13.1 | 41 |  |  |  |  |  | 
11 | 0.42 | > 50 | > 50 |  |  |  | O=C1NC(=O)c2ccc(I)cc2/C1=C/Nc1ccc(C2CCCN2)cc1 (stereo not drawn) [Example 462, 6-Iodo-4-[(4-pyrrolidin-2-yl-phenylamino)-methylene]-4H-isoquinoline-1,3-dione] | 3.6 | 2.6 | 3.5 | 4.8 |  |  |  |  |  | 
12 | 0.14 | > 50 | > 50 |  |  |  | COc1ccc(CNC=C2C(=O)NC(=O)c3ccc(C=Cc4ccccn4)cc32)cc1O [Example 735, 4-[(3-Hydroxy-4-methoxy-benzylamino)-methylene]-6-(2-pyridin-2-yl-vinyl)-4H-isoquinoline-1,3-dione] | 11.4 | 18.2 | 21.9 | 20.1 |  |  |  |  |  | 
13 | 0.05 | > 50 | > 50 |  |  |  | CCN1CCCC1c1ccc(N/C=C2\C(=O)NC(=O)c3ccc(-c4ccoc4)cc32)cc1 (stereo not drawn) [Example 473, 4-{[4-(1-Ethyl-pyrrolidin-2-yl)-phenylamino]-methylene}-6-furan-3-yl-4H-isoquinoline-1,3-dione] | 2.3 | 2.4 | 2 | 1.5 |  |  |  |  |  | 
14 |  |  |  | 13.8 | > 50 | > 50 | CCCOc1ccc(CN/C=C2\C(=O)NC(=O)c3ccc(I)cc32)cc1OC(=O)CCl [Example 293, 5-({[(Z)-(6-Iodo-1,3-dioxo-2,3-dihydroisoquinolin-4(1H)-ylidene)methyl]amino}methyl)-2-propoxyphenyl chloroacetate] |  |  |  |  |  | 0.9 |  | 0.78 | 2.2 | 0.69
15 | 0.14 | 15.1 | 43.4 |  |  |  | O=C1NC(=O)c2ccc(I)cc2/C1=C/NCc1ccc(-c2ccc(F)cc2)c(O)c1 [Example 500, 4-{[(4′-Fluoro-2-hydroxy-biphenyl-4-ylmethyl)-amino]-methylene}-6-iodo-4H-isoquinoline-1,3-dione] | 1.8 | 1.9 | 3.8 | 2.3 |  |  |  |  |  | 
16 | 0.31 | 33.1 | > 50 |  |  |  | COc1ccc(-c2ccc3c(c2)C(=CNCc2ccc(O)c(O)c2)C(=O)NC3=O)cc1OC [Example 813, 4-[(3,4-Dihydroxy-benzylamino)-methylene]-6-(3,4-dimethoxy-phenyl)-4H-isoquinoline-1,3-dione] | 12.7 | 19.8 | 29.7 | 35.8 |  |  |  |  |  | 
17 |  |  |  | 1.3 | 37.1 | > 50 | CC(O)C1CCCN1Cc1ccc(N/C=C2\C(=O)NC(=O)c3ccc(I)cc32)cc1 (single isomer, unassigned) [Example 374, 4-({4-[2-(1-Hydroxy-ethyl)-pyrrolidin-1-ylmethyl]-phenylamino}-methylene)-6-iodo-4H-isoquinoline-1,3-dione] |  |  |  |  |  | 3.8 |  | 3.2 | 1 | 0.46

Row | SMILES | IC50 (cyclin D1/cdk 4 enzyme; [1]) [µM] | IC50 (cyclin E/CDK2 enzyme; [2]) [µM] | IC50 (cyclin B/CDK1 enzyme; [3]) [µM] | IC50 (cyclin D1/cdk 4 enzyme; [5]) [µM] | IC50 (cyclin E/CDK2 enzyme; [6]) [µM] | IC50 (cyclin B/CDK1 enzyme; [7]) [µM] | IC50 (LoVo; 3 days) [µM] | IC50 (HCT-116; 3 days) [µM] | IC50 (MCF-7; 3 days) [µM] | IC50 (BT474; [4]) [µM] | IC50 (cyclin D1/cdk 4 enzyme; CDK4 IC50, In Vitro Enzyme Assays, 200 μM ATP) [µM] | IC50 (LoVo; three days) [µM] | IC50 (cyclin B/CDK1 enzyme; CDK1 IC50, In Vitro Enzyme Assays) [µM] | IC50 (HCT-116; three days) [µM] | IC50 (MCF-7; three days) [µM] | IC50 (BT474; [8]) [µM]
18 | CC(C)[Si](Oc1cc(CN/C=C2\C(=O)NC(=O)c3ccc(Br)cc32)ccc1N)(C(C)C)C(C)C [Example 303, (4Z)-4-[({4-Amino-3-[(triisopropylsilyl)oxy]benzyl}amino)methylene]-6-bromoisoquinoline-1,3(2H,4H)-dione] |  |  |  |  | 3.7 |  |  |  |  |  | 0.39 | 4.6 | 33.9 | 5.3 | 10 | 3.1
